According to patent US10844052B2, “LLS compounds for treatment of cancer” (THE REGENTS OF THE UNIVERSITY OF CALIFORNIA, priority 2016, dated 2020):

Tested on: PC3 prostate cancer cells
Experiment: Cell viability of prostate cancer PC3 cells after 72 hours treatment
Type: cell-based
Settings: Homo sapiens; for viability at 2.5 µM: PC-3, 2.5 μM; for viability at 5 µM: PC-3, 5 μM; for viability at 10 µM: PC-3, 10 μM; for viability at 20 µM: PC-3, 20 μM
Description: Effects of compounds LLS42-LLS80 on the viability of PC3 prostate cancer cells after 72 hours of treatment are shown in Table 2 below: […]

**Q.** For `COc1cc(CNC(CC(N)=O)c2ccc3c(c2)nc(-c2ccc(N(CCO)CCOC(C)=O)cc2)n3C(C)C)cc(Br)c1OC` (stereo not drawn) [LLS43, 2-((4-(5-(3-amino-1-((3-bromo-4,5-dimethoxybenzyl)amino)-3-oxopropyl)-1-isopropyl-1H-benzo[d]imidazol-2-yl)phenyl)(2-hydroxyethyl)amino)ethyl Acetate], which viability at 2.5 µM is on record?
**A.** The viability at 2.5 µM was 105%.

**Q.** And the viability at 5 µM?
**A.** The viability at 5 µM was 102%.

**Q.** What about the viability at 10 µM of the same compound?
**A.** The viability at 10 µM was 101%.

**Q.** And the viability at 20 µM?
**A.** The viability at 20 µM was 105%.

**Q.** Which viability at 2.5 µM does the source give for `NC(=O)CC(NCC1CCCCC1)c1ccc2c(c1)nc(-c1ccc(N3CCOCC3)cc1)n2Cc1ccc(OC(F)(F)F)cc1` (stereo not drawn) [LLS80, 3-((cyclohexylmethyl)amino)-3-(2-(4-morpholinophenyl)-1-(4-(trifluoromethoxy)benzyl)-1H-benzo[d]imidazol-5-yl)propanamide] here?
**A.** The viability at 2.5 µM was 86%.

**Q.** What about the viability at 5 µM of the same compound?
**A.** The viability at 5 µM was 25%.

**Q.** And the viability at 10 µM?
**A.** Its viability at 10 µM is 6%.

**Q.** What about the viability at 20 µM of the same compound?
**A.** The viability at 20 µM was 0%.

**Q.** Which viability at 2.5 µM does the source give for `CC(=O)OCCN(CCOC(C)=O)c1ccc(-c2nc3cc(C(CC(N)=O)NCc4cccn4S(=O)(=O)c4ccccc4)ccc3n2CCCN2CCCCC2)cc1` (stereo not drawn) [LLS52Ac, ((4-(5-(3-amino-3-oxo-1-(((1-(phenylsulfonyl)-1H-pyrrol-2-yl)methyl)amino)propyl)-1-(3-(piperidin-1-yl)propyl)-1H-benzo[d]imidazol-2-yl)phenyl)azanediyl)bis(ethane-2,1-diyl) Diacetate] here?
**A.** The viability at 2.5 µM was 91%.

**Q.** What about the viability at 5 µM of the same compound?
**A.** Its viability at 5 µM is 96%.

**Q.** What about the viability at 10 µM of the same compound?
**A.** Its viability at 10 µM is 94%.

**Q.** What about the viability at 20 µM of the same compound?
**A.** Its viability at 20 µM is 91%.

**Q.** Which results are given for `CC(=O)OCCN(CCOC(C)=O)c1ccc(-c2nc3cc(C(CC(N)=O)NCc4ccc(-c5ccn[nH]5)s4)ccc3n2CCCN(C)C)cc1` (stereo not drawn) [LLS78, ((4-(5-(1-(((5-(1H-pyrazol-5-yl)thiophen-2-yl)methyl)amino)-3-amino-3-oxopropyl)-1-(3-(dimethylamino)propyl)-1H-benzo[d]imidazol-2-yl)phenyl)azanediyl)bis(ethane-2,1-diyl) Diacetate]?
**A.** viability at 2.5 µM: 97%; viability at 5 µM: 93%; viability at 10 µM: 101%; viability at 20 µM: 100%

**Q.** Which viability at 2.5 µM does the source give for `NC(=O)CC(NCc1ccc(Cl)c(Cl)c1)c1ccc2c(c1)nc(-c1ccc(N3CCOCC3)cc1)n2CCCN1CCCCC1` (stereo not drawn) [LLS65, 3-((3,4-dichlorobenzyl)amino)-3-(2-(4-morpholinophenyl)-1-(3-(piperidin-1-yl)propyl)-1H-benzo[d]imidazol-5-yl)propanamide] here?
**A.** The viability at 2.5 µM was 95%.

**Q.** What about the viability at 5 µM of the same compound?
**A.** Its viability at 5 µM is 94%.

**Q.** What about the viability at 10 µM of the same compound?
**A.** Its viability at 10 µM is 74%.

**Q.** And the viability at 20 µM?
**A.** Its viability at 20 µM is 34%.

**Q.** Which viability at 2.5 µM does the source give for `NCCn1c(-c2ccc(N(CCO)CCO)cc2)nc2cc(C(CC(N)=O)NCc3ccc(Br)s3)ccc21` (stereo not drawn) [LLS45, 3-(1-(2-aminoethyl)-2-(4-(bis(2-hydroxyethyl)amino)phenyl)-1H-benzo[d]imidazol-5-yl)-3-(((5-bromothiophen-2-yl)methyl)amino)propanamide] here?
**A.** The viability at 2.5 µM was 92%.

**Q.** What about the viability at 5 µM of the same compound?
**A.** Its viability at 5 µM is 102%.

**Q.** What about the viability at 10 µM of the same compound?
**A.** Its viability at 10 µM is 118%.

**Q.** And the viability at 20 µM?
**A.** Its viability at 20 µM is 117%.

**Q.** Which viability at 2.5 µM does the source give for `CC(=O)OCCN(CCOC(C)=O)c1ccc(-c2nc3cc(C(CC(N)=O)NCc4ccc(Br)s4)ccc3n2CCN)cc1` (stereo not drawn) [LLS45Ac, ((4-(5-(3-amino-1-(((5-bromothiophen-2-yl)methyl)amino)-3-oxopropyl)-1-(2-aminoethyl)-1H-benzo[d]imidazol-2-yl)phenyl)azanediyl)bis(ethane-2,1-diyl) Diacetate] here?
**A.** Its viability at 2.5 µM is 98%.

**Q.** And the viability at 5 µM?
**A.** The viability at 5 µM was 98%.

**Q.** What about the viability at 10 µM of the same compound?
**A.** Its viability at 10 µM is 98%.

**Q.** And the viability at 20 µM?
**A.** Its viability at 20 µM is 91%.

**Q.** With `NC(=O)CC(NCc1cccn1S(=O)(=O)c1ccccc1)c1ccc2c(c1)nc(-c1ccc(N(CCO)CCO)cc1)n2CCCN1CCCCC1` (stereo not drawn) [LLS52, 3-(2-(4-(bis(2-hydroxyethyl)amino)phenyl)-1-(3-(piperidin-1-yl)propyl)-1H-benzo[d]imidazol-5-yl)-3-(((1-(phenylsulfonyl)-1H-pyrrol-2-yl)methyl)amino)propanamide] as the compound, how does the viability at 2.5 µM read?
**A.** Its viability at 2.5 µM is 97%.

**Q.** What about the viability at 5 µM of the same compound?
**A.** Its viability at 5 µM is 96%.

**Q.** And the viability at 10 µM?
**A.** Its viability at 10 µM is 87%.

**Q.** And the viability at 20 µM?
**A.** Its viability at 20 µM is 84%.

**Q.** How did the viability at 2.5 µM turn out when `COc1ccc(CCn2c(-c3ccc(N(CCO)CCO)cc3)nc3cc(C(CC(N)=O)NCc4ccc5[nH]ncc5c4)ccc32)cc1` (stereo not drawn) [LLS53, 3-(((1H-indazol-5-yl)methyl)amino)-3-(2-(4-(bis(2-hydroxyethyl)amino)phenyl)-1-(4-methoxyphenethyl)-1H-benzo[d]imidazol-5-yl)propanamide] was run?
**A.** The viability at 2.5 µM was 93%.

**Q.** And the viability at 5 µM?
**A.** The viability at 5 µM was 91%.

**Q.** And the viability at 10 µM?
**A.** The viability at 10 µM was 98%.

**Q.** And the viability at 20 µM?
**A.** Its viability at 20 µM is 105%.

**Q.** With `NC(=O)CC(NCc1cccc2ccccc12)c1ccc2c(c1)nc(-c1ccc(N(CCO)CCO)cc1)n2Cc1ccc(C(F)(F)F)cc1` (stereo not drawn) [LLS73, 3-(2-(4-(bis(2-hydroxyethyl)amino)phenyl)-1-(4-(trifluoromethyl)benzyl)-1H-benzo[d]imidazol-5-yl)-3-((naphthalen-1-ylmethyl)amino)propanamide] as the compound, how does the viability at 2.5 µM read?
**A.** Its viability at 2.5 µM is 94%.

**Q.** And the viability at 5 µM?
**A.** The viability at 5 µM was 92%.

**Q.** What about the viability at 10 µM of the same compound?
**A.** The viability at 10 µM was 69%.

**Q.** What about the viability at 20 µM of the same compound?
**A.** Its viability at 20 µM is 8%.

**Q.** With `COc1ccc(CCn2c(-c3ccc(N(CCO)CCO)cc3)nc3cc(C(CC(N)=O)NCC4CCCCC4)ccc32)cc1` (stereo not drawn) [LLS56] as the compound, how does the viability at 2.5 µM read?
**A.** Its viability at 2.5 µM is 104%.

**Q.** And the viability at 5 µM?
**A.** Its viability at 5 µM is 105%.

**Q.** What about the viability at 10 µM of the same compound?
**A.** The viability at 10 µM was 98%.

**Q.** And the viability at 20 µM?
**A.** The viability at 20 µM was 93%.

**Q.** Which viability at 2.5 µM does the source give for `COc1ccc(CCn2c(-c3ccc(N(CCOC(C)=O)CCOC(C)=O)cc3)nc3cc(C(N)CC(N)=O)ccc32)cc1` (stereo not drawn) [LLS76, ((4-(5-(1,3-diamino-3-oxopropyl)-1-(4-methoxyphenethyl)-1H-benzo[d]imidazol-2-yl)phenyl)azanediyl)bis(ethane-2,1-diyl) Diacetate] here?
**A.** The viability at 2.5 µM was 92%.

**Q.** And the viability at 5 µM?
**A.** Its viability at 5 µM is 86%.

**Q.** And the viability at 10 µM?
**A.** The viability at 10 µM was 86%.

**Q.** What about the viability at 20 µM of the same compound?
**A.** The viability at 20 µM was 85%.

**Q.** With `NC(=O)CC(NCc1ccc(Cl)c(Cl)c1)c1ccc2c(c1)nc(-c1ccc(N(CCO)CCO)cc1)n2CCCN1CCCCC1` (stereo not drawn) [LLS46, 3-(2-(4-(bis(2-hydroxyethyl)amino)phenyl)-1-(3-(piperidin-1-yl)propyl)-1H-benzo[d]imidazol-5-yl)-3-((3,4-dichlorobenzyl)amino)propanamide] as the compound, how does the viability at 2.5 µM read?
**A.** Its viability at 2.5 µM is 86%.

**Q.** What about the viability at 5 µM of the same compound?
**A.** Its viability at 5 µM is 97%.

**Q.** What about the viability at 10 µM of the same compound?
**A.** The viability at 10 µM was 92%.

**Q.** What about the viability at 20 µM of the same compound?
**A.** Its viability at 20 µM is 94%.

**Q.** Which results are given for `COc1ccc(CCn2c(-c3ccc(N(CCOC(C)=O)CCOC(C)=O)cc3)nc3cc(C(CC(N)=O)NCc4ccc5[nH]ncc5c4)ccc32)cc1` (stereo not drawn) [LLS53Ac, ((4-(5-(1-(((1H-indazol-5-yl)methyl)amino)-3-amino-3-oxopropyl)-1-(4-methoxyphenethyl)-1H-benzo[d]imidazol-2-yl)phenyl)azanediyl)bis(ethane-2,1-diyl) Diacetate]?
**A.** viability at 2.5 µM: 97%; viability at 5 µM: 94%; viability at 10 µM: 99%; viability at 20 µM: 101%

**Q.** Which viability at 2.5 µM does the source give for `NC(=O)CC(NCc1ccc(-c2ccncc2)cc1)c1ccc2c(c1)nc(-c1ccc(N(CCO)CCO)cc1)n2CCCn1ccnc1` (stereo not drawn) [LLS58, 3-(1-(3-(1H-imidazol-1-yl)propyl)-2-(4-(bis(2-hydroxyethyl)amino)phenyl)-1H-benzo[d]imidazol-5-yl)-3-((4-(pyridin-4-yl)benzyl)amino)propanamide] here?
**A.** The viability at 2.5 µM was 92%.

**Q.** And the viability at 5 µM?
**A.** Its viability at 5 µM is 84%.

**Q.** And the viability at 10 µM?
**A.** The viability at 10 µM was 81%.

**Q.** What about the viability at 20 µM of the same compound?
**A.** Its viability at 20 µM is 74%.
